In PubChem BioAssay AID1919006 (Molecular Pharmacology Branch, DTP, NCI, 2023):
pIC50: −log10 of the molar value.

Tested on: 885512-296-R-J2-PDC complex spheroid growth, % test/control
Experiment: Anticancer human tumor 885512-296-R-J2-PDC patient-derived breast carcinoma cell line growth inhibition [AhR]
Conditions: for pIC50: curve of first compound; for viability, T/C: stronger effect = lower value
Text: Multicellular complex tumor spheroid response to aryl hydrocarbon receptor antagonists in combination with a variety of drugs and investigational agents in selected tumor cell lines
The current study was undertaken to assess response to aryl hydrocarbon receptor antagonists in combination with standard-of-care drugs and investigational agents in solid tumor complex spheroid models. Complex spheroids include a stromal component modeled by human endothelial cells (HUVEC) and fibroblasts modeled by human mesenchymal stem cells (MSCs). The concentration ranges selected for each drug and investigational agent were based upon clinically achievable concentrations if the clinical Cmax of the agent was known.
Compounds. The drugs and investigational agents: BAY 2416964 (NSC825713), GNF351 (NSC835774), CH-223191 (NSC835775), CPI-455 (NSC825282), aza-TdCyd (NSC777586), decitabine (NSC127716), belinostat (NSC758774), entinostat (NSC756642), pevonedistat (NSC761192), tazemetostat (NSC777109), talazoparib (NSC765396), olaparib (NSC753686), selinexor (NSC780203), nedisertib (M3814, NSC802822), bortezomib (NSC756655), venetoclax (NSC766270), doxorubicin (NSC123127), elimusertib (BAY189344, NSC800525), ceralasertib (AZD6738, NSC777638), TAK-243 (NSC785004), alisertib (NSC759677), etoposide (NSC141540), topotecan (NSC609699), eribulin (NSC707389), gemcitabine (NSC613327), carboplatin (NSC241240), cisplatin (NSC119875), and SN-38 (NSC673596) were obtained from the National Cancer Institute (NCI) Developmental Therapeutics Program Chemical Repository (32). The FDA-approved anticancer drug set is available from the Developmental Therapeutics Program at https://dtp.cancer.gov/organization/dscb/obtaining/available plates.htm. […] The stock solutions were prepared in dimethyl sulfoxide (DMSO, Sigma-Aldrich, St. Louis, MO, cat. D2650), except for the platinum compounds which were prepared in saline (Quality Biological, Gaithersburg, MD, cat. 114-055-101), at 800-fold the tested concentration and stored at -70 degrees C prior to their use. All drugs and investigational agents were tested over a range starting from a high concentration at or near the clinical Cmax and decreasing in half-log increments. If the clinical Cmax for an agent had not been determined, the highest concentration tested was 10 microM (Table 1).
Cell Culture. All cells were maintained in an incubator at 37 degrees C and 5% CO2 with 95% humidity. The PDC lines were cultured according to standard operating procedures established by the NCI PDMR (https://pdmr.cancer.gov). Briefly, all PDCs were thawed and cultured in Matrigel-coated flasks prepared with a working solution of 1X Ham's F-12 nutrient mix, without supplementation (Invitrogen, Waltham, MA, cat. 11765054), 100 U/mL penicillin-streptomycin (Invitrogen, cat. 15140122), and 2.5% Matrigel (Corning Inc., Corning, NY, cat. 354248) for the first three passages. All PDCs were cultured in complete DMEM/F-12 media containing advanced DMEM/F-12 (Invitrogen, cat. 12634028), 4.9% defined fetal bovine serum, heat inactivated (HyClone Laboratories Inc., Logan, UT, cat. SH30070.03HI), 389 ng/mL hydrocortisone (Sigma-Aldrich, cat. H4001), 9.7 ng/mL human EGF recombinant protein (Invitrogen, cat. PHG0313), 23.4 microg/mL adenine (Sigma-Aldrich, cat. A2786), 97.3 U/mL penicillin-streptomycin (Invitrogen, cat. 15140122), 1.9 mM L-glutamine (Invitrogen, cat. 25030081), and 9.7 microM Y-27632 dihydrochloride (Tocris Bioscience, Bristol, United Kingdom, cat. 1254). The PDCs were cultured in complete DMEM/F12 media without 10 microM Y-27632 dihydrochloride for at least two passages prior to the screen. The established cell lines NCI-H1341 and […] were cultured in DMEM/F-12, HEPES (Invitrogen, cat. 11330032), 5% defined fetal bovine serum (HyClone Laboratories Inc., cat. SH30070.03), ITS premix universal culture supplement [insulin (5 microg/mL), transferrin (5 microg/mL), and selenious acid (5 ng/mL)] […]

[1] = second compound 0.1 µM, first compound 0.0316 µM
[2] = second compound 0.1 µM, first compound 0.1 µM
[3] = second compound 0.316 µM, first compound 0.0316 µM
[4] = second compound 0.316 µM, first compound 0.1 µM
[5] = second compound 1 µM, first compound 0.0316 µM
[6] = second compound 1 µM, first compound 0.1 µM
[7] = second compound 3.16 µM, first compound 0.0316 µM
[8] = second compound 3.16 µM, first compound 0.1 µM
[9] = second compound 10 µM, first compound 0.0316 µM
[10] = second compound 10 µM, first compound 0.1 µM
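Also: spheroids exposed to compounds for seven days.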

How did the pIC50 (second compound 0.1 µM) turn out when `CC[C@@]1(O)C(=O)OCc2c1cc1n(c2=O)Cc2cc3c(CN(C)C)c(O)ccc3nc2-1` + CC(CO)NC(=O)c1cc(-c2ccc(Cl)cc2)nn(-c2cnn(C)c2)c1=O was run?
Its pIC50 is 7.94.

What about the pIC50 (second compound 0.316 µM) of the same compound?
Its pIC50 is 7.93.

What about the pIC50 (second compound 1 µM) of the same compound?
Its pIC50 is 7.97.

And the pIC50 (second compound 3.16 µM)?
The pIC50 was 8.11.

And the pIC50 (second compound 10 µM)?
Its pIC50 is 8.09.

What about the viability, T/C (second compound 0.1 µM, first compound 0.000316 µM) of the same compound?
The viability, T/C was 104%.

What about the viability, T/C (second compound 0.1 µM, first compound 0.001 µM) of the same compound?
Its viability, T/C is 107%.

And the viability, T/C (second compound 0.1 µM, first compound 0.00316 µM)?
Its viability, T/C is 87.9%.

And the viability, T/C (second compound 0.1 µM, first compound 0.01 µM)?
Its viability, T/C is 58.3%.

And the viability, T/C [1]?
The viability, T/C was 8.77%.

What about the viability, T/C [2] of the same compound?
Its viability, T/C is 4.56%.

And the viability, T/C (second compound 0.316 µM, first compound 0.000316 µM)?
The viability, T/C was 92.6%.

And the viability, T/C (second compound 0.316 µM, first compound 0.001 µM)?
The viability, T/C was 94.5%.

What about the viability, T/C (second compound 0.316 µM, first compound 0.00316 µM) of the same compound?
Its viability, T/C is 87.9%.

What about the viability, T/C (second compound 0.316 µM, first compound 0.01 µM) of the same compound?
The viability, T/C was 57%.

And the viability, T/C [3]?
The viability, T/C was 7.83%.

And the viability, T/C [4]?
Its viability, T/C is 5.61%.

And the viability, T/C (second compound 1 µM, first compound 0.000316 µM)?
The viability, T/C was 110%.

And the viability, T/C (second compound 1 µM, first compound 0.001 µM)?
Its viability, T/C is 107%.

And the viability, T/C (second compound 1 µM, first compound 0.00316 µM)?
Its viability, T/C is 92.8%.

And the viability, T/C (second compound 1 µM, first compound 0.01 µM)?
The viability, T/C was 54.5%.

What about the viability, T/C [5] of the same compound?
The viability, T/C was 10%.

What about the viability, T/C [6] of the same compound?
The viability, T/C was 6.33%.

And the viability, T/C (second compound 3.16 µM, first compound 0.000316 µM)?
Its viability, T/C is 117%.

And the viability, T/C (second compound 3.16 µM, first compound 0.001 µM)?
The viability, T/C was 106%.

What about the viability, T/C (second compound 3.16 µM, first compound 0.00316 µM) of the same compound?
The viability, T/C was 81.4%.

What about the viability, T/C (second compound 3.16 µM, first compound 0.01 µM) of the same compound?
Its viability, T/C is 43%.

And the viability, T/C [7]?
Its viability, T/C is 10.9%.

What about the viability, T/C [8] of the same compound?
The viability, T/C was 4.27%.

What about the viability, T/C (second compound 10 µM, first compound 0.000316 µM) of the same compound?
Its viability, T/C is 89.4%.

And the viability, T/C (second compound 10 µM, first compound 0.001 µM)?
The viability, T/C was 93%.

And the viability, T/C (second compound 10 µM, first compound 0.00316 µM)?
The viability, T/C was 75.1%.

And the viability, T/C (second compound 10 µM, first compound 0.01 µM)?
The viability, T/C was 46.2%.

And the viability, T/C [9]?
The viability, T/C was 10%.

And the viability, T/C [10]?
Its viability, T/C is 7.97%.

`Nc1ccn(C2OC(CO)C(O)C2(F)F)c(=O)n1` (stereo not given) + CC(CO)NC(=O)c1cc(-c2ccc(Cl)cc2)nn(-c2cnn(C)c2)c1=O was tested. Which pIC50 (second compound 0.1 µM) did it give?
The pIC50 was > 7.50.

And the pIC50 (second compound 0.316 µM)?
The pIC50 was > 7.50.

And the pIC50 (second compound 1 µM)?
The pIC50 was > 7.50.

And the pIC50 (second compound 3.16 µM)?
The pIC50 was > 7.50.

What about the pIC50 (second compound 10 µM) of the same compound?
Its pIC50 is > 7.50.

What about the viability, T/C [1] of the same compound?
The viability, T/C was 2.76%.

What about the viability, T/C [2] of the same compound?
Its viability, T/C is 3%.

And the viability, T/C (second compound 0.1 µM, first compound 0.316 µM)?
The viability, T/C was 3.87%.

And the viability, T/C (second compound 0.1 µM, first compound 1 µM)?
The viability, T/C was 4.14%.

What about the viability, T/C (second compound 0.1 µM, first compound 3.16 µM) of the same compound?
Its viability, T/C is 4.54%.

And the viability, T/C (second compound 0.1 µM, first compound 10 µM)?
Its viability, T/C is 3.83%.

What about the viability, T/C [3] of the same compound?
Its viability, T/C is 3.69%.

And the viability, T/C [4]?
Its viability, T/C is 3.44%.

And the viability, T/C (second compound 0.316 µM, first compound 0.316 µM)?
The viability, T/C was 2.94%.

And the viability, T/C (second compound 0.316 µM, first compound 1 µM)?
The viability, T/C was 4.15%.

And the viability, T/C (second compound 0.316 µM, first compound 3.16 µM)?
The viability, T/C was 4.75%.

What about the viability, T/C (second compound 0.316 µM, first compound 10 µM) of the same compound?
The viability, T/C was 4.18%.

And the viability, T/C [5]?
Its viability, T/C is 2.96%.

What about the viability, T/C [6] of the same compound?
The viability, T/C was 3.26%.

What about the viability, T/C (second compound 1 µM, first compound 0.316 µM) of the same compound?
Its viability, T/C is 3.72%.

And the viability, T/C (second compound 1 µM, first compound 1 µM)?
Its viability, T/C is 3.82%.

What about the viability, T/C (second compound 1 µM, first compound 3.16 µM) of the same compound?
The viability, T/C was 5.38%.

What about the viability, T/C (second compound 1 µM, first compound 10 µM) of the same compound?
The viability, T/C was 4.22%.

And the viability, T/C [7]?
The viability, T/C was 3.18%.

And the viability, T/C [8]?
The viability, T/C was 2.97%.

What about the viability, T/C (second compound 3.16 µM, first compound 0.316 µM) of the same compound?
Its viability, T/C is 3.84%.

What about the viability, T/C (second compound 3.16 µM, first compound 1 µM) of the same compound?
Its viability, T/C is 3.9%.

What about the viability, T/C (second compound 3.16 µM, first compound 3.16 µM) of the same compound?
Its viability, T/C is 4.31%.

And the viability, T/C (second compound 3.16 µM, first compound 10 µM)?
Its viability, T/C is 4.48%.

And the viability, T/C [9]?
The viability, T/C was 6.37%.

What about the viability, T/C [10] of the same compound?
The viability, T/C was 5.16%.

And the viability, T/C (second compound 10 µM, first compound 0.316 µM)?
Its viability, T/C is 4.54%.

And the viability, T/C (second compound 10 µM, first compound 1 µM)?
Its viability, T/C is 3.78%.

What about the viability, T/C (second compound 10 µM, first compound 3.16 µM) of the same compound?
The viability, T/C was 4.11%.

And the viability, T/C (second compound 10 µM, first compound 10 µM)?
The viability, T/C was 4.01%.
